Experiments:
[1] = test system: IICR (IP3 induced calcium release) in CHO cells; assay: Assay of IICR (IP3 induced calcium release)-inhibiting action; type: cell-based, Chinese hamster
Procedure, shortened: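 Inhibition (%) of the intracellular calcium increase triggered by 10 μM ATP, measured in CHO cells in BSS with calcium. Compound given 1 min after the buffer exchange and 2 min before ATP; values reported per compound concentration.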

[2] = test system: SOCE (store operated calcium entry) in CHO cells; assay: Assay of SOCE (store operated calcium entry)-inhibiting action; type: cell-based, Chinese hamster; conditions: for inhibition at 10 µM / inhibition at 30 µM / SOCE level (percentage of inhibition) / inhibition at 100 µM: CHO cells, thapsigargin; for inhibition at 10 µM / inhibition at 30 µM / inhibition at 100 µM: read-out: SOCE level (percentage of inhibition)
Procedure, shortened: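 CHO cells in calcium-free BSS received compound, then 1 μM thapsigargin 2 min later to deplete stores; after 9 min, 2 mM calcium chloride (final) added. Percent inhibition of the rise in intracellular calcium determined at various compound concentrations.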

[3] = Cricetulus griseus, CHO, Table 1
[4] = test compound 30 μmol, CHO cells, 10 μM ATP
[5] = test compound 100 μmol, CHO cells, 10 μM ATP
[6] = Cricetulus griseus, CHO, test compound 10 μmol
[7] = Cricetulus griseus, CHO, test compound 30 μmol
[8] = Cricetulus griseus, CHO, test compound 10 μmol, CHO cells, 10 μM ATP, read-out: IICR level (percentage of inhibition)
[9] = Cricetulus griseus, CHO, test compound 30 μmol, CHO cells, 10 μM ATP, read-out: IICR level (percentage of inhibition)
[10] = Cricetulus griseus, CHO, test compound 100 μmol, CHO cells, 10 μM ATP, read-out: IICR level (percentage of inhibition)
[11] = Cricetulus griseus, CHO, test compound 100 μmol
[12] = test compound 10 μmol, CHO cells, 10 μM ATP

Structure (SMILES) | inhibition at 20 µM ([1]; Cricetulus griseus, CHO, test compound 20 μmol, CHO cells, 10 μM ATP, read-out: IICR level (percentage of inhibition)) [%] | IC50 [1, 3] [µM] | IICR level (percentage of inhibition) [1, 4] [%] | IICR level (percentage of inhibition) [1, 5] [%] | inhibition at 10 µM [2, 6] [%] | inhibition at 30 µM [2, 7] [%] | IC50 [2, 3] [µM] | SOCE level (percentage of inhibition) ([2]; test compound 100 μmol) [%] | inhibition at 10 µM [1, 8] [%] | inhibition at 30 µM [1, 9] [%] | inhibition at 100 µM [1, 10] [%] | inhibition at 100 µM [2, 11] [%] | SOCE level (percentage of inhibition) ([2]; test compound 10 μmol) [%] | SOCE level (percentage of inhibition) ([2]; test compound 30 μmol) [%] | IICR level (percentage of inhibition) [1, 12] [%]
CC(C)N(CCO)CCC(=O)c1ccco1 [Example 153, 2-(N-hydroxyethylisopropyl)aminoethyl-2-furylketone] | 50 | 20 | 60 | 80 | 0 | 0 | > 100 | 10 | – | – | – | – | – | – | –
CC(C)N(CCO)CCC(=O)c1ccccn1 [Example 154, 2-(N-hydroxyethylisopropyl)aminoethyl-2-pyridylketone] | – | – | – | – | 0 | 0 | – | – | 40 | 20 | 80 | 0 | – | – | –
CC(C)N(CCO)CCC(=O)c1ccncc1 [Example 155, 2-(N-hydroxyethylisopropyl)aminoethyl-4-pyridylketone] | – | – | – | – | 0 | 0 | – | – | 20 | 50 | 80 | 0 | – | – | –
CC(C)N(CCO)CCC(=O)c1nccs1 [Example 156, 2-(N-hydroxyethylisopropyl)aminoethyl-2-thiazolylketone] | – | – | – | – | 0 | 10 | – | – | 20 | 30 | 60 | 20 | – | – | –
CC(CN(CCO)C(C)C)C(=O)c1ccc(F)cc1 (centres unmarked) [Example 157, 1-methyl-2-(N-hydroxyethylisopropyl)aminoethyl-4-fluorophenylketone] | – | – | – | – | 0 | 0 | – | – | 0 | 0 | 0 | 0 | – | – | –
CC(C)N(CCO)CCC(=O)c1cccnc1 [Example 158, 2-(N-isopropylhydroxyethyl)aminoethyl-3′-pyridylketone] | – | – | – | – | 0 | 0 | – | – | 30 | 20 | 20 | 0 | – | – | –
CC(CN(CCO)Cc1ccccc1)C(=O)c1ccc(F)cc1 (centres unmarked) [Example 159, 2-(N-hydroxyethylbenzyl)amino-1-methylethyl-4-fluorophenylketone] | – | – | – | – | 0 | 0 | – | – | 0 | 0 | 20 | 20 | – | – | –
CC(CN(CCO)CCO)C(=O)c1ccc(F)cc1 (centres unmarked) [Example 160, 2-(N-bis(hydroxyethyl))amino-1-methylethyl-4-fluorophenylketone] | – | – | – | – | 0 | 20 | – | – | 0 | 0 | 20 | 60 | – | – | –
CC(CN(CCO)C(C)(C)C)C(=O)c1ccc(F)cc1 (centres unmarked) [Example 161, 2-(N-hydroxyethyl-t-butyl)amino-1-methylethyl-4-fluorophenylketone] | – | – | – | – | 0 | 0 | – | – | 0 | 0 | 20 | 20 | – | – | –
CC(CN(Cc1ccccc1)C(C)(C)C)C(=O)c1ccc(F)cc1 (centres unmarked) [Example 162, 2-(N-t-butylbenzyl)amino-1-methylethyl-4-fluorophenylketone] | – | – | – | – | 0 | 0 | – | – | 0 | 0 | 0 | 40 | – | – | –
CC(CN(C)CCO)C(=O)c1ccc(F)cc1 (centres unmarked) [Example 163, 2-(N-hydroxyethylmethyl)amino-1-methylethyl-4-fluorophenylketone] | – | – | – | – | 0 | 0 | – | – | 0 | 0 | 0 | 20 | – | – | –
Cn1cccc1C(=O)CCN(CCO)Cc1ccccc1 [Example 164, 2-(N-benzyl-2-hydroxyethyl)aminoethyl-2-(N-methylpyrrolyl)ketone] | – | – | – | – | 0 | 0 | – | – | 0 | 0 | 40 | 10 | – | – | –
Cn1cccc1C(=O)CCN(Cc1ccccc1)C(C)(C)C [Example 165, 2-(N-benzyl-t-butyl)aminoethyl-2-(N-methylpyrrolyl)ketone] | – | – | – | – | 0 | 0 | – | – | 0 | 0 | 0 | 0 | – | – | –
CC(C)N(CCO)CCC(=O)c1ccc(F)cc1 [Example 166, 2-(N-hydroxyethylisopropyl)aminoethyl-4-fluorophenylketone] | – | – | – | – | 0 | 0 | – | – | 0 | 0 | 0 | 20 | – | – | –
CN(CCO)CCC(=O)c1cccn1C [Example 167, 2-(N-methyl-2-hydroxyethyl)aminoethyl-2-(N-methylpyrrolyl)ketone] | – | – | – | – | 0 | 0 | – | – | 0 | 0 | 0 | 0 | – | – | –
CC(C)N(CC(=O)c1ccccc1)Cc1ccccc1 [Example 168, 2-(N-isopropylbenzyl)aminomethyl-4-phenylketone] | – | – | – | – | 0 | 0 | – | – | 0 | 0 | 70 | 50 | – | – | –
CC(C)N(CCO)CCC(=O)c1cccn1C [Example 169, 2-(N-isopropyl-2-hydroxyethyl)aminoethyl-2-(N-methylpyrrolyl)ketone] | – | – | – | – | 0 | 0 | – | – | 0 | 0 | 0 | 0 | – | – | –
CC(C)N(CCO)CCC(=O)c1ccc[nH]1 [Example 170, 2-(N-isopropyl-2-hydroxyethyl)aminoethyl-2-pyrrolylketone] | – | – | – | – | 0 | 0 | – | – | 0 | 0 | 0 | 0 | – | – | –
C=CC(=O)c1ccco1 [Example 171, 2-furyl vinylketone] | – | – | – | – | 0 | 10 | – | – | 0 | 0 | 0 | 30 | – | – | –
CC(C)N(CCO)CCC(=O)c1ccco1 [Example 172, 2-(N-isopropylhydroxyethyl)aminoethyl-2-furylketone] | – | – | – | – | – | – | – | 0 | 0 | – | – | – | 0 | 0 | –
O=C(CCN(CCO)Cc1ccccc1)c1ccc[nH]1 [Example 173, 2-(N-benzylhydroxyethyl)aminoethyl-2-pyrrolylketone] | – | – | – | – | 0 | 0 | – | – | 0 | 50 | 80 | 0 | – | – | –
O=C(CCN(CCO)CCO)c1ccco1 [Example 174, 2-(N-bis(hydroxyethyl))aminoethyl-2-furylketone] | – | – | 0 | 0 | – | – | – | 0 | – | – | – | – | 0 | 0 | 0
CN(CCC(=O)c1ccc[nH]1)Cc1ccccc1 [Example 175, 2-(N-benzylmethyl)aminoethyl-2-pyrrolylketone] | – | – | – | – | 0 | 0 | – | – | 10 | 10 | 20 | 0 | – | – | –
O=C(CCNCCc1ncc[nH]1)c1cccnc1 [Example 176] | – | – | – | – | 0 | 0 | – | – | 10 | 30 | 50 | 0 | – | – | –
O=C(CCN(CCO)Cc1ccccc1)c1cccnc1 [Example 177, 2-(N-2-hydroxyethylbenzyl)aminoethyl-3-pyridylketone] | – | – | – | – | 0 | 0 | – | – | 0 | 0 | 50 | 0 | – | – | –
CC(C)N(CCO)CCCC(=O)c1ccccc1 [Example 178, 3-(N-isopropylhydroxyethyl)aminopropylphenylketone] | – | – | 0 | 0 | 0 | 0 | – | – | – | – | – | – | – | – | 0
CC(C)N(CCCC(=O)c1ccccc1)Cc1ccccc1 [Example 179, 3-(N-isopropylbenzyl)aminopropylphenylketone] | – | – | – | – | 0 | 0 | – | – | 0 | 0 | 0 | 0 | – | – | –
